This passage reports delayed mitophagy phenotype results from patent publication US12544375B2, “Small molecule therapeutic for parkinson's disease paired with a biomarker of therapeutic activity” (The Board of Trustees of the Leland Stanford Junior …, priority 2019, dated 2026).

In this assay the test system is PD fibroblasts. Kind of assay: Mitophagy at 14 hrs after CCCP in PD fibroblasts (Western blotting and immunocytochemistry). The format is cell-based, human. To be noted: 14 hrs after CCCP treatment. The protocol: FIG. 8. Related to FIG. 2-4. Miro1 Reducer in Human Cell and Fly Models. (A) Fibroblasts from Healthy-1 and PD-2 were treated, lysed, and blotted as indicated. Band intensities are normalized to those of GAPDH from the same blots and compared to “Healthy-1, no treatment”. n=4 independent experiments. (B) Fibroblasts from PD-2 were treated and immunostained as indicated. The intensity was quantified for each cell across 264-320 cells from 3 independent experiments, compared to “no treatment”. (C) Fibroblasts were treated, immunoprecipitated (IPed) with anti-Miro1, and blotted as indicated. Similar results were observed twice. (D) Similar as in (C), fibroblasts were treated as indicated, and IPed with anti-Miro1. The GTPase activity of the IPed Miro1 protein was measured as described in Method. […] The MitoSox intensity was quantified for each cell across 106-161 cells from 3 coverslips. […] The TMRM intensity was measured for each cell across 48-60 cells from 3 independent experiments, and expressed as a fraction of the mean of “Healthy-1, no treatment”. […] The movement (the intensity of non-yellow) was quantified for each cell as described in (Tsai et al., 2014) across 22-31 cells from 3 transfections. […] (1) Left: The percentage of TH-positive iPSC-derived neurons out of total cells (Dapi-positive) is calculated after immunocytochemistry under 20× as described in FIG. 3. […]
(In general: In western blotting, separated proteins are transferred to a membrane and probed.)

SMILES strings stand for the structures.

Consider `O=C(Nc1ccc(Nc2cc(-n3ccnc3)ncn2)cc1)Nc1cccc(F)c1` [Miro1 Reducer], for which the delayed mitophagy phenotype result is given as “rescued the delayed mitophagy phenotype”.
